8 compounds from patent publication US6720423B2, “Dihydrobenzofuran and dihydrobenzothiophene 2,4-pentadienoic acid derivatives having selective activity for retinoid X (RXR) receptors” (Allergan, Inc., priority 2002, dated 2004) can be followed below.

The target in one assay is T1, RXRα (Homo sapiens, UniProt P19793).
T1 sequence (P19793 1-462): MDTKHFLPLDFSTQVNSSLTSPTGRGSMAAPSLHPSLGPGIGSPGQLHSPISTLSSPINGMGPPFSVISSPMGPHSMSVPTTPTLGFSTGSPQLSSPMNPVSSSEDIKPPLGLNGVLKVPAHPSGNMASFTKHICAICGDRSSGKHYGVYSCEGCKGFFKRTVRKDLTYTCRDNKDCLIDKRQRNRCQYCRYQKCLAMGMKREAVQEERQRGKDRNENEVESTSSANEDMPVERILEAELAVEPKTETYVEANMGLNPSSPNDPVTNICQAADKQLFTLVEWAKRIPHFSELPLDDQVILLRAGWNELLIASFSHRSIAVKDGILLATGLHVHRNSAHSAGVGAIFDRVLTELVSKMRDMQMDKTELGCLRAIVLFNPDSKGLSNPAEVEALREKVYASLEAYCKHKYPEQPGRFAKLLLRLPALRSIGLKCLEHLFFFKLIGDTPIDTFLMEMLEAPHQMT
Description: ligand binding assay, RXRα. The following applies: last entry of cell, read-out: RXR Bind Ki (nM) α. From the text:
(§1) A holoreceptor transactivation assay and a ligand binding assay which measure the antagonist/agonist like activity of the compounds of the invention, or their ability to bind to the several retinoid receptor subtypes, respectively, are described in published PCT Application No. WO WO93/11755 (particularly on pages 30-33 and 37-41) published on Jun. 24, 1993, the specification of which is also incorporated herein by reference. A detailed experimental procedure for holoreceptor transactivations has been described by Heyman et al. Cell 68, 397-406, (1992); Allegretto et al. J. Biol. Chem. 268, 26625-26633, and Mangelsdorf et al. The Retinoids: Biology, Chemistry and Medicine, pp 319-349, Raven Press Ltd., New York, which are expressly incorporated herein by reference. The results obtained in this assay are expressed in EC50 numbers, as they are also in the chimeric receptor transactivation assay. The results of ligand binding assay are expressed in Kd numbers. (See Cheng et al. Biochemical Pharmacology Vol. 22 pp 3099-3108, expressly incorporated herein by reference.)

Assay [1] concerns the target T2, RXRγ (UniProt P28705).
T2 sequence (P28705 1-463): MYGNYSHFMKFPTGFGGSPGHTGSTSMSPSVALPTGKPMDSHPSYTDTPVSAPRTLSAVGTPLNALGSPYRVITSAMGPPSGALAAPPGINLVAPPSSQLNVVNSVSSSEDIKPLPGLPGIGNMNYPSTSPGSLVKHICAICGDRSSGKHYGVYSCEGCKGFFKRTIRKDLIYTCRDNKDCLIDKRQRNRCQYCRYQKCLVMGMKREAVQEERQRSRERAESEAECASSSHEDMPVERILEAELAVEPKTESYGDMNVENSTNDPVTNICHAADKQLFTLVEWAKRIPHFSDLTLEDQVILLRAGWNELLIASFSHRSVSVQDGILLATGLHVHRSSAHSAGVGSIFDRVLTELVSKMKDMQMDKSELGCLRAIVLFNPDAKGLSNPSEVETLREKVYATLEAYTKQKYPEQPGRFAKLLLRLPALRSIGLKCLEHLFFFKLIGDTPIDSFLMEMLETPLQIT
Description: ligand binding assay, RXRγ. Also on record: other: RXRγ; last entry of cell. The following applies: last entry of cell, read-out: RXR Bind Ki (nM) γ.
Source text: as §1

A further assay has as its target T3, RARα (Homo sapiens, UniProt P10276).
T3 sequence (P10276 1-462): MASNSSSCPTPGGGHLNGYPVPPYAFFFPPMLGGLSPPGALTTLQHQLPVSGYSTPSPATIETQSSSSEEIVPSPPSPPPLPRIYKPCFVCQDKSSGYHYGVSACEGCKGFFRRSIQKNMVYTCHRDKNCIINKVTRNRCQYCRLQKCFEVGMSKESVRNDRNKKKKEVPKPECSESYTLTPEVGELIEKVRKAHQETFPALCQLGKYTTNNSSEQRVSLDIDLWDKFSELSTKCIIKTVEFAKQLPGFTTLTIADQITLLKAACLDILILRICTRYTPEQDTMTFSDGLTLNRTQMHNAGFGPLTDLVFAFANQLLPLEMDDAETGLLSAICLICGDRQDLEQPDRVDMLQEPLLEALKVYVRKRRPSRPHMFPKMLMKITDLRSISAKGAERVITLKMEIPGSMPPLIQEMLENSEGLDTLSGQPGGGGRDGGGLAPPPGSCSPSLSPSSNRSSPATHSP
Description: ligand binding assay, RARα. The following applies: second entry of cell, read-out: RAR Bind. Ki (nM) α.
Source text: as §1

Assay [2] has as its target T2, RXRγ. Description: receptor transactivation assay, RXRγ. Format: cell-based. Also on record: RXR Trans; other: RXRγ; first entry of cell. The following applies: for EC50: first entry of cell, read-out: RXR Trans. EC50 (nM) γ; for RXR Trans. γ, number in parentheses after EC50: parenthesised number, not defined in the patent.
Source text: as §1

In another assay the target is T4, RARγ (Homo sapiens, UniProt P13631).
T4 sequence (P13631 1-454): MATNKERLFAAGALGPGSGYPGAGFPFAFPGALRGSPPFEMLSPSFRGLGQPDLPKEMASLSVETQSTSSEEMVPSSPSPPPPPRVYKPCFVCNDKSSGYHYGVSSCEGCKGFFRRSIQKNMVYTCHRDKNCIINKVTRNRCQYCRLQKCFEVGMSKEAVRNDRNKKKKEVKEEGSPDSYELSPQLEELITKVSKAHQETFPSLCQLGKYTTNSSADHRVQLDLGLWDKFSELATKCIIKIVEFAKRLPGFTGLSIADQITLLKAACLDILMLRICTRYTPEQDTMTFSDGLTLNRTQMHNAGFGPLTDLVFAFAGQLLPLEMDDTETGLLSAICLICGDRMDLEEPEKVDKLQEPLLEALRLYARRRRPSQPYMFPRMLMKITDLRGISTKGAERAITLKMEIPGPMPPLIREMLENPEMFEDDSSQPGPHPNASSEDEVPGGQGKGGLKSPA
Put plainly: ligand binding assay, RARγ. The following applies: second entry of cell, read-out: RAR Bind. Ki (nM) γ.
Source text: as §1

In general, Ki refers to the dissociation constant of the complex between target and ligand, obtained from inhibition or displacement. For orientation: EC50 means the concentration that produces a half-maximal response.

Molecules are shown by their SMILES.

`CC(/C=C/[C@@H]1C[C@]1(C)c1cc(-c2c(C)cccc2C)c2c(c1)C(C)(C)CO2)=C\C(=O)O` [Compound 24, 5-{(1 S 2S)-2-[7-(2,6-Dimethyl-phenyl)-3,3-dimethyl-2,3-dihydro-benzofuran-5-yl]-2-methyl-cyclopropyl}-3-methyl-penta-2E,4E-dienoic acid]: the inhibition constant Ki on RXRα was 0.7 nM; on RXRγ [1], 4.8 nM; at RARα, above 10000 nM; at RARγ, above 10000 nM. In addition, on RXRγ [2], the EC50 was determined as 0.86 nM. The “RXR Trans. γ, number in parentheses after EC50” value (from here on “RXR Trans. γ, number”) on RXRγ [2] is 105.

As for `CC(/C=C/[C@@H]1C[C@]1(C)c1cc(-c2ccccc2C)c2c(c1)C(C)(C)CO2)=C\C(=O)O` [Compound 26, 5-[(1S,2S)-2-(3,3-Dimethyl-7-o-tolyl-2,3-dihydro-benzofuran-5-yl)-2-methyl-cyclopropyl]-3-methyl-penta-2E,4E-dienoic acid], the Ki at RXRα was 1.2 nM; at RXRγ [1], 6.1 nM; at RARα, above 10000 nM; at RARγ it was above 10000 nM. Also, at RXRγ [2], the EC50 worked out at 0.32 nM. Moreover, the “RXR Trans. γ, number” value at RXRγ [2] is on record as 107.

On to `CC(/C=C/[C@@H]1C[C@]1(C)c1cc(-c2ccc(C(C)(C)C)cc2)c2c(c1)C(C)(C)CO2)=C\C(=O)O` [Compound 30, 5-{(1S, 2S)-2-[7-(4-tert-Butyl-phenyl)-3,3-dimethyl-2,3-dihydro-benzofuran-5-]-2-methyl-cyclopropyl}-3-methyl-pent-2E,4E-dienoic Acid], for which the Ki on RXRα was 129 nM; on RXRγ [1] it was 69.9 nM; at RARα, above 10000 nM; at RARγ it was above 10000 nM. Also, the EC50 at RXRγ [2] was above 1000 nM. The “RXR Trans. γ, number” value on RXRγ [2] is 80.

Turning to `COc1ccc(-c2cc([C@@]3(C)C[C@H]3/C=C/C(C)=C/C(=O)O)cc3c2OCC3(C)C)cc1` [Compound 32, (E)-3-((E)-2-{(1S,2S)-2-[7-(4-Methoxy-phenyl)-3,3-dimethyl-2,3-dihydro-benzofuran-5-yl]-2-methyl-cyclopropyl}-vinyl)-but-2-enoic acid], the Ki at RXRα is 66 nM; on RXRγ [1], 227 nM; at RARα it was 29000 nM; on RARγ it was above 10000 nM. Also, the EC50 at RXRγ [2] came out at 561 nM. The “RXR Trans. γ, number” value on RXRγ [2] amounted to 106.

With `CC(/C=C/[C@@H]1C[C@]1(C)c1cc(-c2ccc(F)cc2)c2c(c1)C(C)(C)CO2)=C\C(=O)O` [Compound 34, (E)-3-((E)-2-{(1S,2S)-2-[7-(4-Fluoro-phenyl)-3,3-dimethyl-2,3-dihydro-benzofuran-5-yl]-2-methyl-cyclopropyl}-vinyl)-but-2-enoic acid], the inhibitory constant (Ki) on RXRα was determined as 0.5 nM; on RXRγ [1], 1.5 nM; at RARα it was 23000 nM; on RARγ, 25000 nM. For the same compound, the EC50 on RXRγ [2] amounted to 0.56 nM. Moreover, the “RXR Trans. γ, number” value on RXRγ [2] worked out at 109.

Regarding `CC(/C=C/[C@@H]1C[C@@H]1c1ccc2c(c1)C(C)(C)CO2)=C\C(=O)O` [Compound 36, (E)-3-{(E)-2-F[(1S,2S)-2-(3,3-Dimethyl-2,3-dihydro-benzofuran-5-yl)-cyclopropyl]-vinyl}-but-2-enoic acid], the Ki on RXRα was 114 nM; on RXRγ [1] it was 602 nM; on RARα, above 10000 nM; at RARγ, above 10000 nM. The EC50 at RXRγ [2] is 743 nM. Besides, the “RXR Trans. γ, number” value at RXRγ [2] stood at 109.

Take `CCCCC(O)CCc1cc([C@@]2(C)C[C@H]2/C=C/C(C)=C/C(=O)O)cc2c1OCC2(C)C` (stereo partly drawn) [Compound 38, (E)-3-((E)-2-{(1S,2S)-2-[7-(3-Hydroxy-heptyl)-3,3-dimethyl-2,3-dihydro-benzofuran-5-yl]-2-methyl-cyclopropyl}-vinyl)-but-2-enoic acid]: the Ki was 306 nM at RXRα, 283 nM on RXRγ [1], above 10000 nM at RARα and above 10000 nM at RARγ. Further, the concentration for a half-maximal effect (EC50) on RXRγ [2] was 7680 nM. On RXRγ [2], the “RXR Trans. γ, number” value was 142.

For `CCCCC(=O)CCc1cc([C@@]2(C)C[C@H]2/C=C/C(C)=C/C(=O)O)cc2c1OCC2(C)C` [Compound 40], the Ki was 41 nM at RXRα, 70 nM at RXRγ [1], 11000 nM on RARα and above 10000 nM on RARγ. Besides, the EC50 at RXRγ [2] came out at 395 nM. For the same compound, the “RXR Trans. γ, number” value on RXRγ [2] amounted to 94.
